Results: ChEMBL document CHEMBL1201862, “PubChem BioAssay data set” (2004)
The source made the active and inactive calls.

How the values were obtained:
[1] = target: Prothrombin (Homo sapiens, UniProt P00734); assay: Thrombin 1536 HTS Dose Response Confirmation. [Related pubchem assays: 1046 (Thrombin 1536 HTS; hits were confirmed in this assay)]; assay type: functional
[2] = target: E3 ubiquitin-protein ligase Mdm2 (Homo sapiens, UniProt Q00987); assay: enhancers of MDM2-luciferase reporter signal, concentration-effect titration, project on inhibitors of MDM2 ubiquitin ligase, cellular assay, luminescent readout, 384-well plate format (AID 1394); assay type: functional;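 further: MDM2 E3 inhibitors raise luminescence so EC50 is for signal enhancement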
Sequence of E3 ubiquitin-protein ligase Mdm2 (Q00987 whole entry): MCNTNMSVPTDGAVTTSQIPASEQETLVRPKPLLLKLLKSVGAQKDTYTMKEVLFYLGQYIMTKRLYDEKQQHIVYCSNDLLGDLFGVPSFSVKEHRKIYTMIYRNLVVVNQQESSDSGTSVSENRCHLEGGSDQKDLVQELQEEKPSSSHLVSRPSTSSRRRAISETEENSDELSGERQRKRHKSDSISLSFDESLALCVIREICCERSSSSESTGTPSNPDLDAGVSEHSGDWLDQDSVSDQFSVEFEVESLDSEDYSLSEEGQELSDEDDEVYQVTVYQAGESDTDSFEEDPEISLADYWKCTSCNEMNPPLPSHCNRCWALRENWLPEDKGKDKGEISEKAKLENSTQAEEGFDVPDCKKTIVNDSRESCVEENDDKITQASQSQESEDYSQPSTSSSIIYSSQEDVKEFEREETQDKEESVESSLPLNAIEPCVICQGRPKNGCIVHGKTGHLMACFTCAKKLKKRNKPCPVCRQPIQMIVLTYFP

[3] = target: T1, Lytic switch protein BZLF1 (Epstein-Barr virus (strain B95-8) (HHV-4) (Human herpesvirus 4), UniProt P03206); assay: EBV ZTA inhibitors, dose response, counter-screen for EBNA-1 inhibitor project, biochemical, fluorescence polarization, Epstein-Barr virus, 1536-well (AID 2377); parameters: species or system human gammaherpesvirus 4;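 further: fluorescence polarization of Cy5-labelled ZRE DNA probe bound by purified Zta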
T1 sequence (P03206 whole entry): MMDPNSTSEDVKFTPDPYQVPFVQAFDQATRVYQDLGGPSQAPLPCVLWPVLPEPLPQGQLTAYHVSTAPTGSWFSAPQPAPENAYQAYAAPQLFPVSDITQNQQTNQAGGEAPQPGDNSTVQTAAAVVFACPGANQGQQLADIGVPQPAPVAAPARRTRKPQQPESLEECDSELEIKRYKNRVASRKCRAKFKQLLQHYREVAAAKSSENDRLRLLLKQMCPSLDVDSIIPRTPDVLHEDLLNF

[4] = target: T2, Epstein-Barr nuclear antigen 1 (Epstein-Barr virus (strain B95-8) (HHV-4) (Human herpesvirus 4), UniProt P03211); assay: EBNA-1 inhibitors, dose response, biochemical, fluorescence polarization, 1536-well (AID 2381); parameters: species or system human gammaherpesvirus 4;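 further: fluorescence polarization of a Cy5 DNA probe bound by EBNA-1 protein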
T2 sequence (P03211 whole entry): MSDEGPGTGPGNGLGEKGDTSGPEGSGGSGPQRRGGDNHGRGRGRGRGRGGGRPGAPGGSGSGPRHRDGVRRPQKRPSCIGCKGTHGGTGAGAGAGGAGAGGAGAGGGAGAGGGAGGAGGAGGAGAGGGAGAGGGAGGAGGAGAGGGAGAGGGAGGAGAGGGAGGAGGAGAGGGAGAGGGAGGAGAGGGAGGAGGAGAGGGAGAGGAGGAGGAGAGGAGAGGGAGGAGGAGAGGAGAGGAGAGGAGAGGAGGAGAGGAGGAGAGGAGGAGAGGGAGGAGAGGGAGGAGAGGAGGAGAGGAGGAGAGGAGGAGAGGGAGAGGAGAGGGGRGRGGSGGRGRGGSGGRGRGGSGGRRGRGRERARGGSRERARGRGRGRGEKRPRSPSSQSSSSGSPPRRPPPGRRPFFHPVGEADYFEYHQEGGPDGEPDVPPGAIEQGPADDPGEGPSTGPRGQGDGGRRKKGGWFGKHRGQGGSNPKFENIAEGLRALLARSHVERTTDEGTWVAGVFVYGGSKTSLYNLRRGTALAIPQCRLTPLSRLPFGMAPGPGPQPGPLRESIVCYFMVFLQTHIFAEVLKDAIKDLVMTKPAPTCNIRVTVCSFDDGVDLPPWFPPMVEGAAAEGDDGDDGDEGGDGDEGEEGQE

[5] = target: T3, 14-3-3 protein gamma (Homo sapiens, UniProt P61981); assay: modulators of 14-3-3 gamma client binding – dose response (AID 711); assay type: functional
T3 sequence (P61981 whole entry): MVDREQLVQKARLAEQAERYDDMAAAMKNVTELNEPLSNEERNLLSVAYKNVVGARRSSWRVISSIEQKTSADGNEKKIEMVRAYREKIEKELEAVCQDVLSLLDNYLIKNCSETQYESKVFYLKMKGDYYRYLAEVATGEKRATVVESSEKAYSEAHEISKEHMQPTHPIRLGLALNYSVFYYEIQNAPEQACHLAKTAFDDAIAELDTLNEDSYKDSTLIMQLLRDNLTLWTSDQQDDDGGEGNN

[6] = cytotoxicity in HPDE-C7 cells, cell-based, fluorescence, HTS (AID 430); assay type: functional; settings: Homo sapiens
[7] = target: T4, Protein RecA (Mycobacterium tuberculosis, UniProt P9WHJ3); assay: Fluorescence Cell-Free Homogeneous Dose Retest to Identify Inhibitors of RecA-Intein Splicing Activity. [Related pubchem assays (depositor defined):AID2097, AID2223, AID489010, AID492950]; assay type: functional
T4 sequence (P9WHJ3 whole entry): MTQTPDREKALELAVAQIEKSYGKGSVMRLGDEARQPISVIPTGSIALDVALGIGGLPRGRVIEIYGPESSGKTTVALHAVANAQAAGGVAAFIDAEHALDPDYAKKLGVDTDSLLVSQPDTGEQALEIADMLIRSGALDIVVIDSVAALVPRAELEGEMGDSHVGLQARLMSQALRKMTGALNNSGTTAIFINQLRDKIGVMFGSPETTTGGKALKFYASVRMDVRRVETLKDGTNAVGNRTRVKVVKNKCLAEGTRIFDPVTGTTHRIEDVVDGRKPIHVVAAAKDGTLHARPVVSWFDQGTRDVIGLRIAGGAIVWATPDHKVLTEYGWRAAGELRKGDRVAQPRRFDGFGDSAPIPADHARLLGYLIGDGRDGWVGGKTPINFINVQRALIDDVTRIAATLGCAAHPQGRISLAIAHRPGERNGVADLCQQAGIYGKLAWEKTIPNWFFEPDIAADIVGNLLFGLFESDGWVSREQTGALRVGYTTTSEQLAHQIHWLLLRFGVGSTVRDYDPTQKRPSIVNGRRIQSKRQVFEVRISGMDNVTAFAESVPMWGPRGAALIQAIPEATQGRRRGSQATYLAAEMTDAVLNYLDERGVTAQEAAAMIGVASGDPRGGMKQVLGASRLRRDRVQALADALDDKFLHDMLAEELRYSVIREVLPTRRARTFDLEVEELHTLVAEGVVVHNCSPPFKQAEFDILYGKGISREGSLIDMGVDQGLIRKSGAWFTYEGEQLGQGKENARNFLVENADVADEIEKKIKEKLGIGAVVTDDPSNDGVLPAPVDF

[8] = target: T5, Replicative DNA helicase DnaB (Mycobacterium tuberculosis, UniProt P9WMR3); assay: DnaB intein splicing inhibitors, dose response, biochemical, cell-free fluorescence (AID 449749); assay type: functional
T5 sequence (P9WMR3 whole entry): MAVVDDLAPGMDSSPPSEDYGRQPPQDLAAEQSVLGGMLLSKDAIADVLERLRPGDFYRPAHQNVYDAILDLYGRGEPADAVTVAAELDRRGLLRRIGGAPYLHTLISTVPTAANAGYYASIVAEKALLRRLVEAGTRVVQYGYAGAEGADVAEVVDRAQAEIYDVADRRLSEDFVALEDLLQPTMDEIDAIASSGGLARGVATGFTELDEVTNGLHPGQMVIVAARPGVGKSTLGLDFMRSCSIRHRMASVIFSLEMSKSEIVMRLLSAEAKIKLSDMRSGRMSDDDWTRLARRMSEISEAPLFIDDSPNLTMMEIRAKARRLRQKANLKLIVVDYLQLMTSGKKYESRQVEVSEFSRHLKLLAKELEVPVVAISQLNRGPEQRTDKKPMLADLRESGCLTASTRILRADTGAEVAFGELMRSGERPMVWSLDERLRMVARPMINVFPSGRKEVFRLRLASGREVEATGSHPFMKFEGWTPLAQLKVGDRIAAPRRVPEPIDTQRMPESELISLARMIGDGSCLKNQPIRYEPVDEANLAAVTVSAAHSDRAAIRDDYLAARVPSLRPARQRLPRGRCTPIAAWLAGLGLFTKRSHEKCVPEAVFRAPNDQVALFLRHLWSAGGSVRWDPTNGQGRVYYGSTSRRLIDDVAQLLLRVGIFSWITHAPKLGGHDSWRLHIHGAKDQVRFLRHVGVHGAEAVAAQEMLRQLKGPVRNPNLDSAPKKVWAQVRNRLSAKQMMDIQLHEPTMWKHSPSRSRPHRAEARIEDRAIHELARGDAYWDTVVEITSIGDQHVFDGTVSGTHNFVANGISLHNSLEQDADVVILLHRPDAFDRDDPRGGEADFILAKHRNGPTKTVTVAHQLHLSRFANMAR

[9] = tested on: Vero; assay: Vero cell cytotoxicity, cytotoxicity control for flavivirus capping enzyme inhibitors (AID 588742); assay type: functional; settings: Chlorocebus sabaeus
[10] = cytotoxicity in KRAS-transformed pancreatic duct cells, primary screen, cell-based, fluorescence, HTS (AID 431); assay type: functional; settings: Homo sapiens;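 further: cell line used: HPDE-C7K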
[11] = THP-1 cell cytotoxicity, dose response, cytotoxicity control for Vif-APOBEC3G degradation inhibitor project, THP-1 cells (AID 1117359); assay type: functional; settings: Human immunodeficiency virus 1, THP-1
[12] = target: Bcl-2-like protein 1 (Homo sapiens, UniProt Q07817); assay: BCL-XL inhibitors, dose response, selectivity assay for MCL1 inhibitor project, biochemical, fluorescence polarization, 1536-well (AID 2218)
Sequence of Bcl-2-like protein 1 (Q07817 whole entry): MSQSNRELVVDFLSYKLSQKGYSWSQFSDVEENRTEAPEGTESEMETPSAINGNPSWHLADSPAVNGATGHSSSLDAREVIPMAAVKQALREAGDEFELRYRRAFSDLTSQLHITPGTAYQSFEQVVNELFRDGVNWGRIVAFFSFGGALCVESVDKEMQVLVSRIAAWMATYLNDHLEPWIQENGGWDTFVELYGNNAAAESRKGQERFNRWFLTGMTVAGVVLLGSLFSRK

[13] = target: Induced myeloid leukemia cell differentiation protein Mcl-1 (Homo sapiens, UniProt Q07820); assay: MCL1-BIM BH3 interaction inhibitors, dose response, biochemical, fluorescence polarization, BIM-BH3 peptide, 1536-well (AID 2217)
Sequence of Induced myeloid leukemia cell differentiation protein Mcl-1 (Q07820 whole entry): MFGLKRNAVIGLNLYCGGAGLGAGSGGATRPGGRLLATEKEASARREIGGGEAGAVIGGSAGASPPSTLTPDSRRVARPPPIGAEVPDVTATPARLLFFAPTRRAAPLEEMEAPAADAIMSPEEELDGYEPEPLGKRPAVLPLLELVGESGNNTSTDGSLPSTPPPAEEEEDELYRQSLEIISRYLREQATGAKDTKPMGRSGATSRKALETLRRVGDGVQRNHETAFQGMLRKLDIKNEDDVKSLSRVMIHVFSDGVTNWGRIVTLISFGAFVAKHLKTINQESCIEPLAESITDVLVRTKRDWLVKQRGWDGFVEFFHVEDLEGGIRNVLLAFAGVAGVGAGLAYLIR

c1ccc2c(-c3nnc4n3CCCCC4)cc(-c3ccncc3)nc2c1
IC50 [1]: > 50 µM (not active)

COc1ccc(C)cc1NC(=O)C(OC(=O)CNC(=O)c1cc(C)cc(C)c1)c1ccccc1 (stereo not drawn)
EC50 [2]: 7.51 µM (not active)

COc1ccc(NC(=O)c2ccc(C(=O)Nc3ccc(OC)cc3OC)cc2)c(OC)c1
IC50 [3]: > 111 µM (not active) | IC50 [4]: 19.2 µM (not active)

CCCCC1(C(=O)OCC)CC(CN2CCOCC2)OC1=O (stereo not drawn)
IC50 [5]: > 50 µM (not active)

CCCc1n[nH]c2c1C(c1ccc(Br)s1)C(C#N)=C(N)O2 (stereo not drawn)
EC50 [6]: 5.48 µM (active) | EC50 [7]: 7.21 µM (active) | AC50 [8]: 8.54 µM (active) | CC50 [9]: 39.9 µM (active) | EC50 [10]: 7 µM (active)

O=[N+]([O-])c1cc(CN2CCCC2)c2cccnc2c1O
CC50 [11]: > 40 µM (active) | IC50 [12]: > 109 µM (not active) | IC50 [13]: 2.7 µM (active)
